# Measured values: PMC10835127, “Viruses traverse the human proteome through peptide interfaces that can be biomimetically leveraged for drug discovery” (Proceedings of the National Academy of Sciences of the …, 2024)
# Where two headings read alike, the source gives them in different places.
# Experiments:
# [1] = tested on: diet-induced obese model of NASH; experiment: NASH mouse model (AMLN diet-induced obese); type: in vivo, C57BL/6JRj mice; settings: oral, 8 wk; dEF3122 twice daily 7 or 20 mg/kg, OCA once daily 7 mg/kg; vs vehicle
# Experimental: Fig. 6. Effect of the lead compound in a diet-induced obese model of NASH. Mice fed with a high fat, high fructose, and cholesterol supplemented diet for 38 wk were then treated in the last 8 wk with vehicle, dEF3122, or OCA (obeticholic acid) at indicated concentrations (n = 12 animals per group). (A and B) Histopathological mean score changes between the beginning and end of the treatment for liver portal inflammation (A) and liver portal fibrosis (B) are shown with representative stained liver sections of hematoxylin and eosin (H&E) and picrosirius red stains, respectively. (C–E) (C) Areas of kidney fibrosis at the end of the treatment are shown as % of the total area of the selected fields with representative sections of the kidney stained with picrosirius red. (D) % CD3 and (E) % F4/80 positive areas in kidneys with representative sections of CD3 and F4/80 immunostainings. *P < 0.05, **P < 0.01, and ***P < 0.001 from the T test with a preliminary nonsignificant Shapiro–Wilk test or from Wilcoxon signed–rank test otherwise.
# Five-week-old male C57BL/6JRj mice were fed either chow diet or AMLN diet (40% total fat kcal of which 18.5% were trans-fat kcal, 20% fructose, and 2% cholesterol). This diet was maintained for 30 wk prior to study initiation. Three weeks prior to study initiation, liver biopsies were taken, and animals with steatosis grade <2 and fibrosis stage <1 were excluded from the study. Prior to the first administration of the test compound, stratified randomization of mice into treatment groups was performed according to collagen 1a1 (IHC) morphometry from the week 3 biopsies. Each treatment group consisted of 12 mice. For a total of 8 wk, compound dEF3122 was administered orally, twice daily at a concentration of 7 mg/kg or 20 mg/kg. OCA was administered orally, once daily at a concentration of 7 mg/kg. Animals were killed at the end of the treatment, and livers and kidneys were collected. […]
# NASH histopathology and immunochemistry
# Livers were fixed in 10 % neutral buffered formalin and paraffin-embedded; and sections were stained with H&E and picrosirius red to analyze their morphology. Histopathological analysis was performed by a pathologist blinded to the study. Fibrosis was evaluated by quantification of the picrosirius red positive areas. Inflammation was graded by counting the H&E positive inflammatory foci per field.
# Kidneys were fixed in 4 % PFA and paraffin embedded. 4-μm sections were stained with picrosirius red. Images were acquired using a digital slide scanner (Nanozoomer S210 Digital Slide Scanner, Hamamatsu). Renal lesions were blindly examined by a renal pathologist. The extent of interstitial fibrosis was quantified using Image J software (NIH) on Sirius red scanned colored sections. In short, at least 20 random selected fields (original magnification, ×200) across the kidney cortex were analyzed per each kidney section, and the results were expressed as percentages of the total area of the selected fields.
# For immunohistochemistry, 4-µm sections of paraffin-embedded kidneys were submitted for appropriate antigen retrieval by high pressure heating in a solution of Tris EDTA Tween or in a citrate solution. Then, sections were then incubated overnight at 4°C with the following antibodies: rabbit monoclonal anti-CD3 (Abcam, 1:100) and rat monoclonal anti- F4/80 (Biorad, 1:100). After washing, sections were incubated with appropriate amplification secondary antibody: biotin-coupled anti-rabbit (GE Healthcare) for CD3 and biotin-coupled anti-rat (Vector Laboratories) for F4/80, and then incubated with streptavidin coupled HRP (Southern). At the end, DAB (DAKO) staining was used to detect HRP. For quantification of CD3+ and F4/80+ renal cells, the degrees of cellular infiltrate were automatically quantified using ImageJ software (NIH) and expressed as a percentage of the surface area of the positive staining per field, in at least 10 random fields perp
# [2] = Microsomal stability, human liver microsomes; type: in vitro ADME; settings: both sexes, pH 7.4, read-out: CLint hLM
# Experimental: (§1) Tested compounds (1 μM) were incubated with pooled human liver microsomes (Xenotech; pooled male and female) and pooled mouse liver microsomes (Xenotech; male CD-1 mice).
# (§2) Microsomes (final protein concentrations of 0.25 and 0.5 mg/ml, 0.1 M phosphate buffer pH 7.4) containing tested compound (final substrate concentration 1 μM; final DMSO concentration 0.25 %) were preincubated at 37 °C prior to the addition of NADPH (final concentration 1 mM) to initiate the reaction. The final incubation volume was 200 μl. 3 species-specific control compounds were included with each species. At 5 time points (0, 5, 10, 20, and 40 min), reactions were stopped by transferring 50 μl of the incubation mixture into 0.5 μM carbamazepine in acetonitrile. Tested compound concentrations were analyzed by LC-MS/MS and the resulting data were used to determine the half-life and intrinsic clearance of the compound in each
# influenza A H1N1 virus = experiment: microbe, parasite or virus in culture
# [3] = Microsomal stability, mouse liver microsomes; type: in vitro ADME; settings: male, CD-1, mouse, pH 7.4; murine liver microsomes; read-out: CLint mLM
# Experimental: as §1, §2
# [4] = Plasma protein binding by equilibrium dialysis, murine; type: in vitro ADME; settings: mouse, read-out: PPB (% bound)
# Experimental: The free and bound fractions of the tested compounds in mouse and human plasma were determined by equilibrium dialysis using a 96-well Teflon dialysis unit (HTDialysis plate complete unit, HT Dialysis, USA). The HTDialysis plate complete unit consists of a 96-well plate with wells vertically bisected by a semipermeable membrane (membranes strips 12 to 14 kDa) creating two chambers. A 125 μL aliquot of plasma containing tested compound at 10 μM was placed on one side and 125 μL of Dulbecco‘s phosphate buffered saline (D-PBS) on the other. The plate was incubated at 37 °C for 6 hr under gentle agitation. Then, samples from both plasma and buffer compartment were analyzed by a LC-MS/MS method to measure the free fraction and the bound fraction to the plasma proteins. […]
# Kinetic solubility = type: physicochemical; settings: PBS pH 7.4 buffer, pH 7.4, aqueous buffer, kinetic from dmso stock
# Experimental: 10 mM DMSO Stock solutions of tested compounds were distributed into filtration plate (Multiscreen Durapore 0.45µm) containing PBS pH 7.4 buffer to a final maximum concentration of 130 μM (1.3 % DMSO/buffer). Solutions or suspensions were shaken for 30 min at room temperature. The samples were filtered under vacuum into a collection plate and diluted 50 % with ACN for UV analysis. Quantification was performed against a Reference plate containing the same tested compounds fully solubilized in ACN/PBS buffer 1:1. Reference and Sample plates were analyzed by UPLC/UV-MS using a generic UPLC method. […]
# PK parameters in mice = type: in vivo, male Swiss (CD-1) mice; settings: male, Swiss (CD-1), plasma, mouse
# Experimental: PK parameters and tissue distribution in mice
# The pharmacokinetic profiles of the tested compounds were evaluated in male Swiss (CD-1) mice around 5-6 weeks old (3 animals per sampling time). […]
# 0.2 % Tween 80 in water. Blood samples were collected (0.25 mL) from the sinus retro-orbital […]
# 24 hr for p.o. route. The blood samples were immediately centrifuged at 2500 rpm at +4 °C, and the plasma was stored at −80 °C. 50 μL of plasma sample was taken and 150 μL of acetonitrile was added. After protein precipitation, analysis of the molecule was performed using LC-MS/MS to determine plasma compound concentration. For liver and lung collection, 3 animals per group were involved and sampled after 2 hr and 24 hr upon 20 mg/kg p.o. administration. Animals were perfused with around 10 mL of saline solution directly into the heart to extract the maximal blood sample from the liver and the lung. Animals were then sacrificed by cervical dislocation and liver
# [5] = Cryopreserved hepatocyte stability, mouse; type: in vitro ADME; settings: cryopreserved hepatocytes, murine hepatocytes, read-out: CLint mHep
# Experimental: (§3) Cryopreserved hepatocyte stability
# (§4) Tested compounds (1 μM) were incubated with human cryopreserved hepatocytes (pool of 5) (IVT Celsis) and mouse cryopreserved hepatocytes (IVT Celsis). Hepatocytes (1, 0.5 or 0.25 x10^6 cells/mL, Williams’ Medium E (WME) with 4 mM L-glutamine and 2 mM magnesium sulphate) containing tested compound (final substrate concentration 1 μM; final DMSO concentration 0.25 %) were preincubated at 37 °C. The final incubation volume was 500 μl. 3 species-specific control compounds were included with each species. At 7 time points (0, 10, 20, 40, 60, 90, and 120 min), reactions were stopped by transferring 50 μl of the incubation mixture into 0.5 μM carbamazepine in cold acetonitrile. Tested compound concentrations were analyzed by LC-MS/MS and the resulting data were used to determine the half-life and intrinsic clearance of the compound in each species. […]
# [6] = Cryopreserved hepatocyte stability, human; type: in vitro ADME; settings: cryopreserved hepatocytes, read-out: CLint hHep
# Experimental: as §3, §4
# [7] = H1N1, A549, read-out: IC50 for the inhibition of influenza virus replication
Structure (SMILES),microsomal CLint at 1 µM [2] [µL/min/mg],IC50 (influenza A H1N1 virus; [7]) [µM],microsomal CLint at 1 µM [3] [µL/min/mg],"fraction unbound at 6 h, 10 µM [4]",solubility kinetic at 30 min (Kinetic solubility) [µM],other results
"CC[C@H]1[C@@H](O)[C@@H]2[C@H](CC[C@]3(C)[C@@H]([C@H](C)CCC(=O)O)CC[C@@H]23)[C@@]2(C)CC[C@@H](O)C[C@@H]12 [OCA, obeticholic acid, reference compound]",–,–,–,–,–,liver portal fibrosis [1]: significantly reduced portal fibrosis; liver portal inflammation [1]: failed to alleviate portal inflammation
O=C(Nc1ccc(Cl)cc1)c1c(NC(=O)C2CCCCC2C(=O)O)sc2c1CCC2 (stereo not drawn) [dEF384],< 14,5,< 20,< 0.01,74,"half-life (PK parameters in mice; iv 0.9 mg/kg, read-out: T1/2 iv (converted)): 1.08 h; Cmax (PK parameters in mice; po 10 mg/kg): 31.3 µg/mL; bioavailability (PK parameters in mice; po 10 mg/kg, iv 0.9 mg/kg): 71%; half-life (PK parameters in mice; po 10 mg/kg, read-out: T1/2 po (converted)): 1.74 h"
CCOC(=O)c1c(NC(=O)C2CCCCC2C(=O)O)sc2c1CCC(C(C)(C)C)C2 (stereo not drawn) [dEF2586],–,3,–,–,173,–
O=C(Nc1scc(C2CCc3ccccc3C2)c1C(=O)O)c1ccccc1 (racemic) [dEF2905],–,–,29,0.001,48,"hepatocyte CLint at 1 µM [5]: < 5 µL/min/1e6 cells; IC50 (influenza A H1N1 virus; H1N1, A549, read-out: Neuraminidase activity assay IC50): 0.018 µM; hepatocyte CLint at 1 µM [6]: 65 µL/min/1e6 cells; half-life (PK parameters in mice; iv 0.25 mg/kg, read-out: T1/2 iv (converted)): 3.8 h; Cmax (PK parameters in mice; po 2 mg/kg (dose for AUC)): 1.14 µg/mL; bioavailability (PK parameters in mice; po 2 mg/kg, iv 0.25 mg/kg): 33%"
COc1ccc(C(=O)Nc2sc3c(c2C(=O)O)CCC(C(C)(C)C)C3)cc1 (stereo not drawn) [dEF2665],38,0.15,50,0.001,< 5,–
